Measured values reported in patent publication US20240174690A1, “ANNULATED 2-AMINO-3-CYANO THIOPHENES AND DERIVATIVES FOR THE TREATMENT OF CANCER” (BOEHRINGER INGELHEIM INTERNATIONAL GMBH, priority 2021, published 2024).
pIC50: −log10 of the molar value.

Columns and labels:
[1] = system: NCI-H358 cells; test: NCI-H358 CTG proliferation assay (120 h) (NSCLC, G12C); assay type: cell-based, human; settings: Homo sapiens, assay 2, CTG, read-out: H358 (assay 2) IC50
Summary of the method: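 NCI-H358 cells (KRAS G12C) were seeded at 2000/well (assay 1) or 200/well (assay 2) in RPMI-1640 + 10% FCS and dosed with a logarithmic series, DMSO-normalized. After 120 h, viability was read by CellTiter-Glo luminescence as percent of DMSO control, with a T0 read at dosing. IC50 came from a four-parameter fit.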

[2] = system: NCI-H2122 cells; test: NCI-H2122 CTG proliferation assay (120 h) (NSCLC, G12C); assay type: cell-based; settings: Homo sapiens
Summary of the method: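 NCI-H2122 cells (KRAS G12C NSCLC), 200 per well in RPMI with 10% FCS, were dosed with compound on day 1 and incubated 120 h at 37 °C. Viability was read by CellTiter-Glo luminescence as percent of DMSO control, and IC50 was fitted with a four-parameter model.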

[3] = Metabolic (microsomal) stability assay, human liver microsomes (HLM); assay type: in vitro ADME; settings: predicted clearance as percent of liver blood flow, 1 μM
Summary of the method: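 LC-MS/MS tracked parent disappearance at 0, 5, 15, 30 and 60 min in NADPH-initiated incubations with 1 mg/mL human microsomal protein and 1 μM compound at 37°C, pH 7.5. First-order fits gave intrinsic clearance, which was scaled up and reported as % QH. NADPH-free controls were also run.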

[4] = Plasma protein binding assay (PPB), equilibrium dialysis, 10% FCS in PBS; assay type: in vitro ADME; settings: bovine, read-out: PPB 10% FCS (% fu)
Summary of the method: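 Equilibrium dialysis (5-10 kg/mol cut-off membrane) of 1-10 μmol/L test compound in 10% FCS/PBS against PBS with or without dextran, 3-5 h at 37° C. Compound in each chamber quantified by LC-MS after protein precipitation; fu calculated from Cserum and Cbuffer.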

Row | pIC50 [1] | pIC50 [2] | HLM QH [3] [%] | fraction unbound [4] | SMILES
1 | 7.12 | 5.97 | <24 | 0.54 | C[C@H](Oc1cc(-c2ccn(C3COC3)n2)nc(-c2onc3c2CCC[C@@]32CCCc3sc(N)c(C#N)c32)n1)[C@@H]1CCCN1C [I-34]
2 | 6.92 | 6.22 | <24 | 0.21 | C[C@H](Oc1cc(-c2cnsc2)nc(-c2onc3c2CCC[C@@]32CCCc3sc(N)c(C#N)c32)n1)[C@@H]1CCCN1C [I-27]
3 | 6.87 | 6.45 | <24 | 0.1 | C[C@H](Oc1cc(-c2ccn([C@H]3CCCOC3)n2)nc(-c2noc3c2CCC[C@@]32CCCc3sc(N)c(C#N)c32)n1)[C@@H]1CCCN1C [II-42]
4 | 6.40 | 5.80 | 31 | 0.39 | C[C@H](Oc1cc(C2CCCO2)nc(-c2noc3c2CCC[C@@]32CCCc3sc(N)c(C#N)c32)n1)[C@@H]1CCCN1C (some centres unmarked) [II-44]
5 | 6.93 | 6.99 | <24 | 0.11 | C[C@H](Oc1cc(-c2ccn(C[C@@H]3CCCO3)n2)nc(-c2noc3c2CCC[C@@]32CCCc3sc(N)c(C#N)c32)n1)[C@@H]1CCCN1C [II-43]
6 | 8.40 | 6.84 | <24 | 0.24 | C[C@H](Oc1cc(-n2ccc(C(=O)NC3(C)COC3)n2)nc(-c2noc3c2CCC[C@@]32CCCc3sc(N)c(C#N)c32)n1)[C@@H]1CCCN1C [II-26]
7 | 5.56 | 5.50 | 27 | 0.54 | C[C@H](Oc1cc(-n2nccn2)nc(-c2onc3c2CCC[C@@]32CCCc3sc(N)c(C#N)c32)n1)[C@@H]1CCCN1C [I-29]
8 | 6.24 | 5.07 | <24 | 0.69 | C[C@H](Oc1cc(N2C[C@@H](N(C)C)[C@@H](O)C2)nc(-c2noc3c2CCC[C@@]32CCCc3sc(N)c(C#N)c32)n1)[C@@H]1CCCN1C [II-10]
9 | 6.69 | 6.08 | <24 | 0.46 | C[C@H](Oc1cc(-c2ccn(C[C@@H](C)O)n2)nc(-c2onc3c2CCC[C@@]32CCCc3sc(N)c(C#N)c32)n1)[C@@H]1CCCN1C [I-30]
10 | 5.88 | 5.47 | <24 | 0.68 | C[C@H](Oc1cc(N2CCNC3(CCC3)C2)nc(-c2onc3c2CCC[C@@]32CCCc3sc(N)c(C#N)c32)n1)[C@@H]1CCCN1C [I-3]
11 | 6.73 | 5.78 | <24 | 0.35 | C[C@H](Oc1cc(-c2ccc(N)nc2)nc(-c2onc3c2CCC[C@@]32CCCc3sc(N)c(C#N)c32)n1)[C@@H]1CCCN1C [I-25]
